# Experimental data as given in patent US6784201B2, “Benzothiepines having activity as inhibitors of ileal bile acid transport and taurocholate uptake” (G.D. Searle & Company, priority 1994, dated 2004).
# Structures can show the parent of a compound that is named as a salt.
# Biological target: T1, human IBAT (Homo sapiens, UniProt Q12908)
# T1 construct: expressed in transfected cells; host or cells: Baby hamster kidney (BHK) cells, clone H14
# T1 sequence (Q12908 1-348): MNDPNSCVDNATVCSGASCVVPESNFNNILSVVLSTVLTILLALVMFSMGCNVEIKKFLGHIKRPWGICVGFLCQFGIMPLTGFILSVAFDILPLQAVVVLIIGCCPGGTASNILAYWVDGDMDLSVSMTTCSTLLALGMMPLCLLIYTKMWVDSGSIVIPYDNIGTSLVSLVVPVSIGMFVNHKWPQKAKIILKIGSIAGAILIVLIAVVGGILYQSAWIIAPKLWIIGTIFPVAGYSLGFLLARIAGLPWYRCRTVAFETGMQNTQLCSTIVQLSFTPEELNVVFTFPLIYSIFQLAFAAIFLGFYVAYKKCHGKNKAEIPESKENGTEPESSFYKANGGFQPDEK
# Experiment: In vitro assay of IBAT-mediated uptake of [14C]-taurocholate (TC) in H14 cells
# Type: cell-based
# Conditions: 100 uM; read-out: In vitro % Inhibition of TC Uptake @ 100 uM
# Outline: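 BHK cells stably expressing human IBAT (H14) were incubated 2 h at 37° C with compound and 3 μM final [14C]-taurocholate in DMEM (4.5 g/L glucose) plus 0.2% fatty acid-free BSA. After cold PBS washes, cell-associated radioactivity was measured by scintillation counting.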
row,SMILES,inhibition at 100 µM [%]
1,"CCCC[C@]1(CC)CS(=O)(=O)c2ccccc2[C@@H]2O[C@@H]21 [Example 19a, (1aα,2α,8bα) 2-Butyl-2-ethyl-1a,2,3,8b-tetrahydro-benzothiepino[4,5-b]oxirene-4,4-dioxide]",0
2,"CC[C@@H]1CS(=O)(=O)c2ccccc2[C@H](c2ccccc2)[C@H]1O [Example 14a, (3α,4β,5α)-3-Ethyl-4-hydroxy-5-phenyl-2,3,4,5-tetrahydro-benzothiepine-1,1-dioxide]",13

# Same assay, conditions: In Vitro Taurocholate Uptake, Table 10; read-out: Human TC IC50
row,SMILES,IC50 [nM]
1,"CCCCC1(CCCC)CS(=O)(=O)c2ccc(N(C)C)cc2[C@@H](c2ccc(OCCC[N+]34CCN(CC3)CC4)cc2)[C@H]1O [Example 1407, (4R-cis)-1-[3-[4-[3,3-Dibutyl-7-(dimethylamino)-2,3,4,5-tetrahydro-4-hydroxy-1,1-dioxido-1-benzothiepin-5-yl]phenoxy]propyl]-4-aza-1-azoniabicyclo[2.2.2]octane, 4-methylbenzenesulfonate (Salt)]",3

# Same assay, conditions: read-out: Human TC IC50
row,SMILES,IC50 [nM]
1,CCCCC1(CCCC)CS(=O)(=O)c2ccc([N+](C)(C)C)cc2C(c2cccc(OC)c2)C1O (centres unmarked) [Example 1301],150
2,"CCCCC1(CC)CS(=O)(=O)c2ccc(Br)cc2C(c2cccc(OC)c2)C1O (single isomer, unassigned) [Example 271]",70
3,CCCCC1(CCCC)CS(=O)(=O)c2ccc(N(C)C)cc2C(c2cccc(OCCOCCOCC[n+]3ccccc3)c2)C1O (centres unmarked) [Example 1068],4
4,"CCCCC1(CCCC)CS(=O)(=O)c2ccc(N(C)C)cc2C(c2ccccc2)C1O (single isomer, unassigned) [Example 1200]",6100
5,CCCCC1(CC)CS(=O)(=O)c2ccc(OC)cc2C(c2ccccc2F)C1O (centres unmarked) [Example 280],180
6,"CCCCC1(CC)CS(=O)(=O)c2ccc(OC)cc2C(c2cccc(C(F)(F)F)c2)C1O (single isomer, unassigned) [Example 265]",2000
7,CCCCCC(=O)Nc1ccc2c(c1)C(c1ccccc1)C(O)C(CC)(CCCC)CS2(=O)=O (centres unmarked) [Example 108],300
8,CCCCC1(CCCC)CS(=O)(=O)c2ccc(N(C)C)cc2C(c2cccc(OCCOCCOCC[n+]3ccn(Cc4ccccc4)c3)c2)C1O (centres unmarked) [Example 1359],14
9,CCCCC[N+](CCCCC)(CCCCC)CCOCCOCCOc1cccc(C2c3cc(N(C)C)ccc3S(=O)(=O)CC(CCCC)(CCCC)C2O)c1 (centres unmarked) [Example 1278],17
10,CCCCC1(CCCC)CS(=O)(=O)c2ccc(N(C)C)cc2C(c2cccc(OCCOCCOCC[N+]3(C)CCN(P(C)(=O)c4ccccc4)CC3)c2)C1O (centres unmarked) [Example 1050],3
11,CCCCC1(CCCC)CS(=O)(=O)c2ccc(N)cc2[C@@H](c2ccc(F)cc2)[C@H]1O [Example 292],46
12,CCCCC1(CCCC)CS(=O)(=O)c2ccc(N(C)C)cc2C(c2ccc[n+](C)c2)C1O (centres unmarked) [Example 1356],220
13,"CCCCC1(CC)CS(=O)(=O)c2ccc(OC)cc2C(c2cccc(OC)c2)C1O (single isomer, unassigned) [Example 262]",70
14,CCCCC1(CCCC)CS(=O)(=O)c2ccc(N(C)C)cc2C(c2ccc(OCCC[N+](CCCC)(CCCC)CCCC)c(F)c2)C1O (centres unmarked) [Example 1286],68
15,CCCCC1(CCCC)CS(=O)(=O)c2ccc(N(C)C)cc2C(c2cccc(OCCOCCOCC[N+](CC)(CC)CCN(C)P(C)(=O)c3ccccc3)c2)C1O (centres unmarked) [Example 1071],4
16,CCCCC1(CCCC)CS(=O)(=O)c2ccc(N(C)C)cc2C(c2ccccc2)C1O (centres unmarked) [Example 1162],63
17,CCCCC1(CCCC)CS(=O)(=O)c2ccc(N(C)C)cc2C(c2cccc(CO)c2)C1O (centres unmarked) [Example 1077],4.5
18,CCCC[C@@]1(CC)CS(=O)(=O)c2ccc(N)cc2[C@@H](c2ccc(O)cc2)[C@H]1O [Example 111],2500
19,"CCCCC1(CC)CS(=O)(=O)c2ccc(F)cc2C(c2ccc(F)cc2)C1O (single isomer, unassigned) [Example 273]",1900
20,CCCCC1(CCCC)CS(=O)(=O)c2ccc(C)cc2CC1O (centres unmarked) [Example 1201],8300
